Test results: patent US8404723B2, “3-cyano 5-thiazaheteroaryl-dihydropyridine and the use thereof for the treatment of cardiovascular diseases” (Bayer Intellectual Property GmbH, priority 2006, dated 2013)
pIC50: −log10 of the molar value.

Target: T1, human mineralocorticoid receptor (MR) (Homo sapiens, UniProt P08235)
T1 construct: expressed in transfected cells
T1 sequence (P08235 734-984 limits assumed): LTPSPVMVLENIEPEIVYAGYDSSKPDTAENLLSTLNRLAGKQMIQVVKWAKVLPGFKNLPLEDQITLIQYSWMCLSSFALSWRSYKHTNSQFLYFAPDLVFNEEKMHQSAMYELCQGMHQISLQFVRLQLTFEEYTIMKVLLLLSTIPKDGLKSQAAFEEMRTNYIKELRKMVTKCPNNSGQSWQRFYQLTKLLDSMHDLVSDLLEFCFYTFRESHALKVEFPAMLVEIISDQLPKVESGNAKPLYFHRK
Assay: Cellular in vitro assay to determine the inhibitory MR activity (GAL4-MR chimera luciferase reporter in CHO K1 cells)
Type: cell-based
Conditions: aldosterone as agonist
From the text: 1. Cellular In Vitro Assay to Determine the Inhibitory MR Activity and MR Selectivity Compared with Other Steroid Hormone Receptors
Antagonists of the human mineralocorticoid receptor (MR) are identified, and the activity of the compounds described herein is quantified with the aid of a recombinant cell line. The cell is originally derived from a hamster ovary epithelial cell (Chinese Hamster Ovary, CHO K1, ATCC: American Type Culture Collection, Va. 20108, USA).
An established chimera system in which the ligand-binding domains of human steroid hormone receptors are fused to the DNA-binding domain of the yeast transcription factor GAL4 is used in this CHO K1 cell line. The GAL4-steroid hormone receptor chimeras produced in this way are cotransfected and stably expressed with a reporter construct in the CHO cells.
To generate the GAL4-steroid hormone receptor chimeras, the GAL4 DNA binding domain (amino acids 1-147) from the vector pFC2-dbd (from Stratagene) is cloned with the PCR-amplified ligand-binding domains of the mineralocorticoid receptor (MR, amino acids 734-985), of the glucocorticoid receptor (GR, amino acids 443-777), of the progesterone receptor (PR, amino acids 680-933) and of the androgen receptor (AR, amino acids 667-919) into the vector pIRES2 (from Clontech). The reporter construct, which comprises five copies of the GAL4 binding site upstream of a thymidine kinase promoter, leads to expression of firefly-luciferase (Photinus pyralis) after activation and binding of the GAL4-steroid hormone receptor chimeras by the respective specific agonists aldosterone (MR), dexamethasone (GR), progesterone (PR) and dihydrotestosterone (AR).
The MR, GR, PR and AR cells are plated out in medium (Optimem, 2.5% FCS, 2 mM glutamine, 10 mM HEPES) in 96- (or 384- or 1536-) well microtiter plates on the day before the assay and are kept in a cell incubator (96% humidity, 5% v/v CO2, 37° C.). On the day of the assay, the substances to be tested are taken up in the abovementioned medium and added to the cells. About 10 to 30 minutes after addition of the test substances, the respective specific agonists of the steroid hormone receptors are added. After a further incubation time of 5 to 6 hours, the luciferase activity is measured with the aid of a video camera. The measured relative light units as a function of the substance concentration result in a sigmoidal stimulation curve. The IC50 values are calculated with the aid of the GraphPad PRISM computer program (Version 3.02).

Row | SMILES | pIC50
1 | COc1cc(C#N)ccc1C1C(C#N)=C(C(F)(F)F)NC(C)=C1c1nc(C)cs1 (stereo not shown) [Example 3, 4-(4-Cyano-2-methoxyphenyl)-6-methyl-5-(4-methyl-1,3-thiazol-2-yl)-2-(trifluoromethyl)-1,4-dihydropyridine-3-carbonitrile] | 8.00
2 | CC1=C(C#N)C(c2cccc3c(=O)cc(C)oc23)C(c2nc(C)cs2)=C(C)N1 (stereo not shown) [Example 4, 2,6-Dimethyl-4-(2-methyl-4-oxo-4H-chromen-8-yl)-5-(4-methyl-1,3-thiazol-2-yl)-1,4-dihydro-pyridine-3-carbonitrile] | 7.02
3 | CC1=C(C#N)C(c2cccc3ncc(C)cc23)C(c2nc(C)cs2)=C(C)N1 (stereo not shown) [Example 18, 2,6-Dimethyl-4-(3-methylquinolin-5-yl)-5-(4-methyl-1,3-thiazol-2-yl)-1,4-dihydropyridine-3-carbonitrile] | 6.56

The next lines start with the values.

Row | pIC50 | SMILES
4 | 7.03 | COc1cc(C#N)ccc1C1C(C#N)=C(C)NC(C)=C1c1nc(C)cs1 (stereo not shown) [Example 1, 4-(4-Cyano-2-methoxyphenyl)-2,6-dimethyl-5-(4-methyl-1,3-thiazol-2-yl)-1,4-dihydropyridine-3-carbonitrile]
5 | 7.13 | COc1cc(C#N)ccc1C1C(C#N)=C(C)NC(C)=C1c1nc2ccccc2s1 (stereo not shown) [Example 12, 5-(1,3-Benzothiazol-2-yl)-4-(4-cyano-2-methoxyphenyl)-2,6-dimethyl-1,4-dihydropyridine-3-carbonitrile]
6 | 7.74 | CCc1cnc(C2=C(C)NC(C)=C(C#N)C2c2ccc(C#N)cc2OC)s1 (stereo not shown) [Example 23, 4-(4-Cyano-2-methoxyphenyl)-5-(5-ethyl-1,3-thiazol-2-yl)-2,6-dimethyl-1,4-dihydropyridine-3-carbonitrile]
7 | 6.49 | COc1cc(C#N)ccc1C1C(C#N)=C(C)NC(C)=C1c1nnc(C)s1 (stereo not shown) [Example 24, 4-(4-Cyano-2-methoxyphenyl)-2,6-dimethyl-5-(5-methyl-1,3,4-thiadiazol-2-yl)-1,4-dihydropyridine-3-carbonitrile]
